Values belong to the molecule of their own block, whether it stands above or below them.
Experiments:
[1] = target: FGF14:Nav1.6 complex (CLuc-FGF14 and CD4-Nav1.6 C-tail-NLuc) (Homo sapiens, UniProt Q92915+Q9UQD0); experiment: cell-based; details: for activity at 30 µM: HEK293, 2 h, read-out: % luminescence, FGF14:Nav1.6 complex (HTS); for initial dose/concentration dependency against FGF14:Nav1.6: screening library compound, Suppl. Fig. 3
[2] = tested on: hippocampal CA1 pyramidal neurons; experiment: Ex vivo patch-clamp of hippocampal CA1 pyramidal neurons in brain slices; type: cell-based, mice; details: 20 μM
Nav1.6 = experiment: Whole-cell patch-clamp electrophysiology in HEK-Nav1.6 cells; type: cell-based, human
FGF14^Y158A:Nav1.6 = FGF14^Y158A:Nav1.6 (Homo sapiens, UniProt Q92915+Q9UQD0, Y153A); experiment: LCA dose response, FGF14^Y158A:Nav1.6 mutant complex
[3] = tested on: double stable HEK293 cells; experiment: CellTiter-Blue; type: cell-based; details: 30 μM; fluorescence read after 16 h; relative to DMSO controls
[4] = target: FGF14:FGF14 dimer (CLuc-FGF14 and FGF14-NLuc) (Homo sapiens, UniProt Q92915); experiment: LCA counter-screen and dose response, FGF14:FGF14 homodimer; type: cell-based; details: plateau; normalized to 0.3% DMSO

SMILES: CC(C)(O)/C=C/C(=O)[C@](C)(O)[C@H]1[C@H](O)C[C@@]2(C)[C@@H]3CC=C4[C@@H](C=C(O)C(=O)C4(C)C)[C@]3(C)C(=O)C[C@]12C [Cucurbitacin I]
- activity at 30 µM [1]: 5.6%
- initial dose/concentration dependency against FGF14:Nav1.6 [1]: highly potent but undesirable curve shape

- initial dose/concentration dependency against FGF14:Nav1.6 [1]: less ideal
SMILES: Cc1ccc2c(=O)c3ccccc3n(CCCN)c2c1C.O=C(O)C(=O)O [ER 27319]

SMILES: Cc1cnc(Nc2ccc(OCCN3CCCC3)cc2)nc1Nc1cccc(S(=O)(=O)NC(C)(C)C)c1 [Fedratinib]
- resting membrane potential, current threshold and voltage threshold for action potential firing ([2]; Fgf14^+/+ mice): no significant changes
- maximum number of evoked action potentials (AP) ([2]; Fgf14^+/+ mice, 1 hr slice incubation): 11.3 ± 1.4
- evoked action potentials ([2]; Fgf14^−/− mice, 1 hr slice incubation): 11.8 ± 2.7
- V½ of activation (Nav1.6; HEK-Nav1.6 FGF14-GFP, 20 μM): −30.56 ± 1.9 mV
- V½ of steady-state inactivation (Nav1.6; HEK-Nav1.6 FGF14-GFP, 20 μM): −60.8 ± 1.2 mV
- decay time constant (τ) of INa (Nav1.6; HEK-Nav1.6 FGF14-GFP, 20 μM): 1.4 ± 0.06 ms
- peak transient Na+ current (INa) density (Nav1.6; HEK-Nav1.6 FGF14-GFP, 20 μM): −81.27 ± 11.3 pA/pF
- long-term inactivation (LTI), normalized INa at pulse 3 (Nav1.6; HEK-Nav1.6 FGF14-GFP, 30 min incubation, pulse 3): 0.89 ± 0.02%
- effect on long-term inactivation (LTI) (Nav1.6; HEK-Nav1.6 FGF14^Y158A): no effect
- peak transient Na+ current (INa) density (Nav1.6; HEK-Nav1.6 FGF14^Y158A-GFP, 20 μM): −26.65 ± 3.5 pA/pF
- V½ of activation (Nav1.6; HEK-Nav1.6 FGF14^Y158A, 20 μM): −22.69 ± 1.2 mV
- V½ of steady-state inactivation, change compared to DMSO (Nav1.6; HEK-Nav1.6 FGF14^Y158A, 20 μM): no significant change
- decay time constant (τ) of INa (Nav1.6; HEK-Nav1.6 FGF14^Y158A, 20 μM): 1.8 ± 0.11 ms
- peak transient Na+ current (INa) density (Nav1.6; HEK-Nav1.6 GFP (channel alone), 20 μM): −59.43 ± 6.0 pA/pF
- V½ of activation (Nav1.6; HEK-Nav1.6 GFP, 20 μM): −25.7 ± 1.7 mV
- V½ of steady-state inactivation (Nav1.6; HEK-Nav1.6 GFP, 20 μM): −61.7 ± 1.0 mV
- decay time constant (τ) of INa (Nav1.6; HEK-Nav1.6 GFP, 20 μM): 1.3 ± 0.07 ms

- effect on FGF14^Y158A:Nav1.6 complex compared with FGF14^WT (FGF14^Y158A:Nav1.6): abolished
SMILES: N#CCNC(=O)c1ccc(-c2ccnc(Nc3ccc(N4CCOCC4)cc3)n2)cc1 [Momelotinib]

SMILES: O=C(Nc1ccc([N+](=O)[O-])cc1Cl)c1cc(Cl)ccc1O [Niclosamide]
- activity at 30 µM [1]: 18.7%

- initial dose/concentration dependency against FGF14:Nav1.6 [1]: promising concentration dependency
SMILES: NC(=O)c1cnc(N[C@@H]2CCCC[C@@H]2N)nc1Nc1cccc(-n2nccn2)c1 [PRT062607]

- effect on FGF14^Y158A:Nav1.6 complex compared with FGF14^WT (FGF14^Y158A:Nav1.6): abolished
SMILES: C1=C/COCc2cc(ccc2OCCN2CCCC2)Nc2nccc(n2)-c2cccc(c2)COC/1 [Pacritinib]

SMILES: O=[N+]([O-])c1ccc2c(c1)S(=O)(=O)C=C2 [Stattic]
- % fluorescence from the CTB assay (cell viability) [3]: 57.2%

- FGF14^Y158A:Nav1.6 IMin/EMax (FGF14^Y158A:Nav1.6; plateau, normalized to 0.3% DMSO): 78.0 percent luminescence
- FGF14:FGF14^WT IMin/EMax [4]: 150.6 percent luminescence
SMILES: Cc1cnc(Nc2ccc(N3CCN(C)CC3)cc2)nc1Nc1cccc(S(=O)(=O)NC(C)(C)C)c1 [TG101209]

SMILES: C[C@H]1[C@H](C)CC[C@]2(C(=O)O)CC[C@]3(C)C(=CC[C@@H]4[C@@]5(C)CC[C@H](O)C(C)(C)[C@@H]5CC[C@]43C)[C@H]12 [Ursolic Acid]
- activity at 30 µM [1]: 104%

Source: publication PMC7984254 (Biochimica et biophysica acta. Molecular cell research, 2020)
